Laboratory results reported in ChEMBL document CHEMBL3885861, “Open TG-GATES”.

Species: Rattus norvegicus
Assay: Open TG-GATES - Regimen: Single
Type: toxicity, organism-based, Sprague-Dawley
Design: regimen Single, gender Male, age 6 weeks
Conditions: in vivo, po, 400 mg/kg, route gavage, dose level Low; for APTT / Bas / Eos / Fbg / Hb / Ht / Lym / MCH / MCHC / MCV / Mono / Neu / PT / Plat / RBC / Ret / WBC: tissue Blood; for KIDNEY_L / KIDNEY_R / KIDNEY_TOTAL: tissue Kidney; for LIVER: tissue Liver; for A/G / ALP / ALT / AST / BUN / CRE / Ca / Cl / DBIL / GLC / IP / K / LDH / Na / PL / RALB / TBIL / TC / TG / TP / gamma-GTP: tissue Plasma

In the case of `CCO` [ALCOHOL], the TERMINAL_BW (3 h) is reported as 202.6 g, the APTT (3 h) is reported as 16.4 s and the Bas (3 h) is reported as 0%. The Eos (3 h) was 1%, the Fbg (3 h) was 202.8 mg/dL and the Hb (3 h) was 13.7 g/dL. The Ht (3 h) was 40.7%, the Lym (3 h) was 81.2% and the MCH (3 h) was 21.8 pg. It also gave an MCHC (3 h) of 33.6%, an MCV (3 h) of 64.7 fL and a Mono (3 h) of 5.6%. It also gave a Neu (3 h) of 12.2%, a PT (3 h) of 12 s and a Plat (3 h) of 115.5 x10_4/uL. It also gave an RBC (3 h) of 628.6 x10_4/ul, a Ret (3 h) of 10% and a WBC (3 h) of 77.8 x10_2/uL. For the same molecule, the KIDNEY_L (3 h) was 0.9 g, the KIDNEY_R (3 h) was 0.9 g and the KIDNEY_TOTAL (3 h) was 1.8 g. It also gave an LIVER (3 h) of 9.6 g, an A/G (3 h) of 2.5 and an ALP (3 h) of 1037.2 IU/L. For the same molecule, the ALT (3 h) was 36.2 IU/L, the AST (3 h) was 69 IU/L and the BUN (3 h) was 13.8 mg/dL. It also gave a CRE (3 h) of 0.5 mg/dL, a Ca (3 h) of 10.7 mg/dL and a Cl (3 h) of 104.4 meq/L. The DBIL (3 h) was 0.012 mg/dL, the GLC (3 h) was 195.8 mg/dL and the IP (3 h) was 9.3 mg/dL. The K (3 h) was 4.4 meq/L, the LDH (3 h) was 117.6 IU/L and the Na (3 h) was 139.8 meq/L. The PL (3 h) was 140.4 mg/dL, the RALB (3 h) was 3.9 g/dL and the TBIL (3 h) was 0.4 mg/dL. For the same molecule, the TC (3 h) was 76.4 mg/dL, the TG (3 h) was 66 mg/dL and the TP (3 h) was 5.4 g/dL. The gamma-GTP (3 h) was 1.2 IU/L, the TERMINAL_BW (6 h) was 202.6 g and the APTT (6 h) was 17.9 s. The Bas (6 h) was 0%, the Eos (6 h) was 1% and the Fbg (6 h) was 220.2 mg/dL. The Hb (6 h) was 13.8 g/dL, the Ht (6 h) was 41.1% and the Lym (6 h) was 70.4%. The MCH (6 h) was 21.7 pg, the MCHC (6 h) was 33.6% and the MCV (6 h) was 64.6 fL. It also gave a Mono (6 h) of 6.6%, a Neu (6 h) of 22.4% and a PT (6 h) of 11.8 s. It also gave a Plat (6 h) of 114.6 x10_4/uL, an RBC (6 h) of 636.6 x10_4/ul and a Ret (6 h) of 10.1%. For the same molecule, the WBC (6 h) was 98 x10_2/uL, the KIDNEY_L (6 h) was 0.9 g and the KIDNEY_R (6 h) was 0.9 g. The KIDNEY_TOTAL (6 h) was 1.8 g, the LIVER (6 h) was 9.6 g and the A/G (6 h) was 2.3. For the same molecule, the ALP (6 h) was 802 IU/L, the ALT (6 h) was 29.8 IU/L and the AST (6 h) was 61.8 IU/L. For the same molecule, the BUN (6 h) was 11.2 mg/dL, the CRE (6 h) was 0.5 mg/dL and the Ca (6 h) was 10.5 mg/dL. The Cl (6 h) was 105 meq/L, the DBIL (6 h) was 0.068 mg/dL and the GLC (6 h) was 197.2 mg/dL. The IP (6 h) was 9.8 mg/dL, the K (6 h) was 4.7 meq/L and the LDH (6 h) was 90.2 IU/L. For the same molecule, the Na (6 h) was 139.6 meq/L, the PL (6 h) was 135.4 mg/dL and the RALB (6 h) was 3.8 g/dL. For the same molecule, the TBIL (6 h) was 0.4 mg/dL, the TC (6 h) was 75 mg/dL and the TG (6 h) was 53.2 mg/dL. For the same molecule, the TP (6 h) was 5.4 g/dL, the gamma-GTP (6 h) was 1.8 IU/L and the TERMINAL_BW (9 h) was 203.1 g. It also gave an APTT (9 h) of 18.5 s, a Bas (9 h) of 0% and an Eos (9 h) of 1.4%. For the same molecule, the Fbg (9 h) was 205 mg/dL, the Hb (9 h) was 13.4 g/dL and the Ht (9 h) was 40.1%. The Lym (9 h) was 70.4%, the MCH (9 h) was 21.7 pg and the MCHC (9 h) was 33.5%. It also gave an MCV (9 h) of 64.7 fL, a Mono (9 h) of 7.6% and a Neu (9 h) of 20.4%. It also gave a PT (9 h) of 12 s, a Plat (9 h) of 110.8 x10_4/uL and an RBC (9 h) of 619 x10_4/ul. It also gave a Ret (9 h) of 10.4%, a WBC (9 h) of 90.1 x10_2/uL and a KIDNEY_L (9 h) of 0.9 g. It also gave a KIDNEY_R (9 h) of 0.9 g, a KIDNEY_TOTAL (9 h) of 1.8 g and an LIVER (9 h) of 8.6 g. The A/G (9 h) was 2.9, the ALP (9 h) was 826.6 IU/L and the ALT (9 h) was 30.2 IU/L. It also gave an AST (9 h) of 63 IU/L, a BUN (9 h) of 12.8 mg/dL and a CRE (9 h) of 0.5 mg/dL. For the same molecule, the Ca (9 h) was 10.9 mg/dL, the Cl (9 h) was 105.6 meq/L and the DBIL (9 h) was 0.038 mg/dL. For the same molecule, the GLC (9 h) was 199.4 mg/dL, the IP (9 h) was 9.9 mg/dL and the K (9 h) was 4.5 meq/L. The LDH (9 h) was 106.4 IU/L, the Na (9 h) was 137 meq/L and the PL (9 h) was 137.4 mg/dL. For the same molecule, the RALB (9 h) was 4.1 g/dL, the TBIL (9 h) was 0.4 mg/dL and the TC (9 h) was 79.4 mg/dL. The TG (9 h) was 37.2 mg/dL, the TP (9 h) was 5.5 g/dL and the gamma-GTP (9 h) was 1.8 IU/L. It also gave a TERMINAL_BW (24 h) of 214.8 g, an APTT (24 h) of 16.9 s and a Bas (24 h) of 0%. It also gave an Eos (24 h) of 1.6%, a Fbg (24 h) of 196.4 mg/dL and a Hb (24 h) of 13.2 g/dL. For the same molecule, the Ht (24 h) was 39.2%, the Lym (24 h) was 75% and the MCH (24 h) was 21.3 pg. For the same molecule, the MCHC (24 h) was 33.7%, the MCV (24 h) was 63.3 fL and the Mono (24 h) was 7.2%. The Neu (24 h) was 17%, the PT (24 h) was 11.5 s and the Plat (24 h) was 122.1 x10_4/uL. The RBC (24 h) was 619 x10_4/ul, the Ret (24 h) was 10.5% and the WBC (24 h) was 85 x10_2/uL. It also gave a KIDNEY_L (24 h) of 1 g, a KIDNEY_R (24 h) of 1 g and a KIDNEY_TOTAL (24 h) of 2 g. For the same molecule, the LIVER (24 h) was 9.9 g, the A/G (24 h) was 2.6 and the ALP (24 h) was 906 IU/L. The ALT (24 h) was 41 IU/L, the AST (24 h) was 65.4 IU/L and the BUN (24 h) was 17.8 mg/dL. It also gave a CRE (24 h) of 0.5 mg/dL, a Ca (24 h) of 11 mg/dL and a Cl (24 h) of 104.4 meq/L. It also gave a DBIL (24 h) of 0.018 mg/dL, a GLC (24 h) of 201 mg/dL and an IP (24 h) of 8.1 mg/dL. It also gave a K (24 h) of 4.7 meq/L, an LDH (24 h) of 103.6 IU/L and a Na (24 h) of 139 meq/L. It also gave a PL (24 h) of 142 mg/dL, an RALB (24 h) of 4 g/dL and a TBIL (24 h) of 0.4 mg/dL. It also gave a TC (24 h) of 79.2 mg/dL, a TG (24 h) of 61.4 mg/dL and a TP (24 h) of 5.6 g/dL. It also gave a gamma-GTP (24 h) of 1.6 IU/L.
